{
  "source": "patent US4414206A",
  "about": "“Animal feeds” (Bristol-Myers Company, priority 1982, dated 1983)",
  "key": {"[1]": {"tested_on": "Male broiler chickens", "assay": "Four week growth and feed efficiency study in broiler chicks fed amphomycin-supplemented feed", "assay_type": "in vivo, chickens (Hubbard breeder pullet×White Mountain males)", "excerpt": "The efficacy of amphomycin in promoting growth and improving the feed efficiency of broiler chicks is illustrated below.\nIn this example a basal diet was employed containing the following ingredients:\nMale broiler chickens (Hubbard breeder pullet×White Mountain males) were used as the test animal. They were housed in electrically heated, metal battery brooders equipped with raised wire-screen floors. […] The room and battery units were left unclean from a previous test that terminated before the chicks were started. Drinking water for the test came from overflow water from a laying cage operation. The water was collected in garbage cans and was allowed to stand overnight to permit particulate matter to settle out. The birds were vaccinated at 7 days of age for Newcastle, Bronchitis and Marek's. The feed trays were fitted with wire screens riding on top of the feed to minimize feed wastage. Feed and water were fed ad libitum. Four groups of ten birds each, chosen on the basis of hatching body weight, were fed the experimental diet for a four week test period and four groups were fed the control diet. The groups of birds and diets were placed in the batteries on the basis of position chosen from tables of random numbers. The birds and the feed were group weighed on a weekly basis. The test was terminated at four weeks of age.\nThe control diet was prepared as follows:\nThe experimental diet (for amphomycin concentration\nof 4 grams/ton) was prepared as follows:\n*calculated for both groups at 800 grams body weight from feed efficiency"}, "[2]": {"tested_on": "rumen fermentation", "assay": "Artificial rumen test (in vitro rumen fermentation)", "details": "for Cellulose digested (%) / Methane produced (cc) / Propionate produced / Total calories digested (Calories) / Caloric efficiency: mean ± one standard deviation, three observations; for Caloric efficiency: formula in drawing 1", "method": "A standard in vitro method for determining compounds which stimulate propionate production during rumen fermentation is the artificial rumen method described in U.S. Pat. No. 3,794,732. […] This property in ruminants is presumably in addition to the previously-described feed-utilization efficiency promoting activity of amphomycin in monogastric animals which involves a different mechanism of action.\nAmphomycin was evaluated at doses of 0.025, 0.1 and 0.5 mg per incubation (25 ml. inoculum--artificial saliva with cellulose, starch and urea as nutrients) according to the general procedure of Example 5 of U.S. Pat. No. 3,794,732.\n^a Results reported as mean ± one standard deviation. Controls\n^b Reported as a percent of total volatile fatty acid calories"}, "[3]": {"details": "4 grams/ton amphomycin in feed, versus control group"}, "[4]": {"details": "broiler chickens, about 4 to 12 grams per ton of feed, on average"}, "[5]": {"details": "0.025, 0.1 and 0.5 mg per incubation"}},
  "note": "Entries after “also recorded” stand apart in the source; their conditions may differ.",
  "data": [
    {"substance": "amphomycin", "values": [
      {"measurement": "Body weights in grams at 4 weeks of age", "setting": "[1]; 4 grams/ton amphomycin in feed, ad libitum, four week test, male broiler chickens", "result": 817.5, "unit": "grams"},
      {"measurement": "Improvement in feed efficiency", "setting": "[1]; [3]", "result": 4.07, "unit": "%"},
      {"measurement": "Percentage increase in weight at end of 4 weeks", "setting": "[1]; [3]", "result": 6.21, "unit": "%"},
      {"measurement": "Feed efficiency calculated as consumption in grams ÷ average body weight in grams", "setting": "[1]; 4 grams/ton amphomycin in feed, calculated at 800 grams body weight from feed efficiency curve", "result": 1.480},
      {"measurement": "less total feed consumed than comparable chickens fed same diet without amphomycin", "setting": "[1]; [4]", "result": 3, "unit": "%"},
      {"measurement": "more weight gained than comparable chickens fed same diet without amphomycin", "setting": "[1]; [4]", "result": "about 3%"},
      {"measurement": "Urease activity", "setting": "[2]; 0.025 mg/tube", "result": "90 % of control"},
      {"measurement": "Cellulose digested (%)", "setting": "[2]; 0.025 mg/tube", "result": "64.9 ± 2.1", "unit": "%"},
      {"measurement": "Methane produced (cc)", "setting": "[2]; 0.025 mg/tube", "result": "2.88 ± 0.47", "unit": "cc"},
      {"measurement": "Propionate produced", "setting": "[2]; 0.025 mg/tube", "result": "58.9 ± 0.9% of total volatile fatt"},
      {"measurement": "Total calories digested (Calories)", "setting": "[2]; 0.025 mg/tube", "result": "1108 ± 22", "unit": "Calories"},
      {"measurement": "Caloric efficiency", "setting": "[2]; 0.025 mg/tube", "result": "62.1 ± 4.5"},
      {"measurement": "Urease activity", "setting": "[2]; 0.1 mg/tube", "result": "84 % of control"},
      {"measurement": "Cellulose digested (%)", "setting": "[2]; 0.1 mg/tube", "result": "64.0 ± 2.4", "unit": "%"},
      {"measurement": "Methane produced (cc)", "setting": "[2]; 0.1 mg/tube", "result": "2.53 ± 0.20", "unit": "cc"},
      {"measurement": "Propionate produced", "setting": "[2]; 0.1 mg/tube", "result": "62.1 ± 1.7% of total volatile fatt"},
      {"measurement": "Total calories digested (Calories)", "setting": "[2]; 0.1 mg/tube", "result": "1098 ± 26", "unit": "Calories"},
      {"measurement": "Caloric efficiency", "setting": "[2]; 0.1 mg/tube", "result": "68.9 ± 10.0"},
      {"measurement": "Urease activity", "setting": "[2]; 0.5 mg/tube", "result": "60 % of control"},
      {"measurement": "Cellulose digested (%)", "setting": "[2]; 0.5 mg/tube", "result": "57.5 ± 4.0", "unit": "%"},
      {"measurement": "Methane produced (cc)", "setting": "[2]; 0.5 mg/tube", "result": "1.27 ± 0.07", "unit": "cc"},
      {"measurement": "Propionate produced", "setting": "[2]; 0.5 mg/tube", "result": "67.1 ± 4.7% of total volatile fatt"},
      {"measurement": "Total calories digested (Calories)", "setting": "[2]; 0.5 mg/tube", "result": "1029 ± 43", "unit": "Calories"},
      {"measurement": "Caloric efficiency", "setting": "[2]; 0.5 mg/tube", "result": "65.5 ± 16.8"},
      {"measurement": "cellulase / cellulolysis (cellulose digestion) (in words)", "setting": "[2]; [5]", "result": "did not significantly inhibit; also recorded: decreases slightly; also recorded: does not significantly inhibit"},
      {"measurement": "methane production (in words)", "setting": "[2]; [5]", "result": "significantly inhibits; also recorded: decreases significantly"},
      {"measurement": "propionate production (in words)", "setting": "[2]; [5]", "result": "significantly increase; also recorded: increases significantly"},
      {"measurement": "total calories digested (in words)", "setting": "[2]; [5]", "result": "did not significantly inhibit cellulase or significantly affect total calories digested"},
      {"measurement": "dose that appears to be the most efficacious", "setting": "[2]; 25 ml. inoculum per incubation", "result": 0.1, "unit": "mg. per incubation"},
      {"measurement": "acetate and butyrate production (in words)", "setting": "[2]; as the dose increases", "result": "decreases"}
    ]}
  ]
}
